{
  "source": "paper PMC5789847",
  "about": "“Bismuth antimicrobial drugs serve as broad-spectrum metallo-β-lactamase inhibitors” (Nature Communications, 2018)",
  "key": {"NDM-BL21": {"system": "NDM-BL21", "assay": "Microdilution MIC assay", "type": "cell-based, E. coli", "excerpt": "(§1) Other procedures were kept strictly the same."}, "NDM-Rosetta": {"system": "NDM-Rosetta", "assay": "Microdilution MIC assay", "type": "cell-based, E. coli", "excerpt": "as §1"}, "NDM-HK [1]": {"system": "NDM-HK", "assay": "Resistance study: MPC and mutation frequency", "type": "cell-based, E. coli"}, "NDM-HK [2]": {"system": "NDM-HK", "assay": "Murine peritonitis infection, mucin-free model", "type": "in vivo, BALB/c mice", "details": "without mucin; MER 50 mg kg^−1 + CBS 50 mg kg^−1, up to 86 h", "excerpt": "All experiments were approved by, and performed in accordance with the guidelines approved by Committee on the Use of Live Animals in Teaching and Research (CULATR), the University of Hong Kong. A total of 6–8-week-old, female BALB/c mice (18–22 g) were purchased from Charles River Laboratories, Inc. and were used in all mouse studies. The animals were randomized to cages for each experiment.\nIn mucin-free survival experiment, the mice were infected with a dose of 5 × 10^7 CFU of NDM-HK in PBS. The mice received monotherapy of MER (50 mg kg^−1) or CBS (50 mg kg^−1), or combination therapy 0.5 h post infection (n = 5 for each group). Other experimental operations and conditions were kept the same as that in mucin-assisted model. Body weights and mice survival were monitored for endpoint till endpoint of the experiment."}, "[3]": {"set-up": "method as in earlier work", "details": "treatment of peptic ulcer disease; cited from earlier work"}, "NDM-1": {"biological_target": "NDM-1 (Klebsiella pneumoniae, UniProt C7C422)", "sequence (C7C422 29-270 limits assumed)": "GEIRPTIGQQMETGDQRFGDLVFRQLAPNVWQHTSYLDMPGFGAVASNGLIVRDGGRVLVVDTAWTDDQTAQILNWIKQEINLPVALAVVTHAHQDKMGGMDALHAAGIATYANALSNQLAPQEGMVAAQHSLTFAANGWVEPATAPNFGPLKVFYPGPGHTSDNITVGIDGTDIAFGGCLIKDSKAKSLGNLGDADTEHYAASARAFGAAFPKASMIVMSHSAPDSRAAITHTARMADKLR", "type": "cell-based", "set-up": "endogenous in cells; host or cells: E. coli clinical isolate NDM-HK", "details": "NDM-HK cultured with 100 µM compound; control 50.1 °C", "protocol": "The cellular thermal shift assay was performed according to a standard method. Clinical isolate of NDM-1-positive E. coli (NDM-HK) was cultured overnight in the absence or presence of 100 µM Bi(III) compounds, i.e., CBS, Bi(NAC)3, Bi(NIT)3. The bacterial pellets were harvested and washed with PBS for 4 times. The cell suspensions were aliquoted into PCR tubes and heat treatment was performed at the designated temperature ranging from 40 °C to 70 °C for 3 min in a 96-well thermal cycler. The tubes were cooled immediately at room temperature for another 3 min after heating and the heating procedures were repeated for three cycles. For the cell lysis, the samples were frozen–thawed for two cycles in liquid nitrogen and thermal cycler set at 25 °C. The samples were vortexed gently after each cycle and were centrifuged at 20,000 × g to obtain the supernatant when the second cycle was finished. All the samples were subjected to western blot analysis for detection and quantification of NDM-1 content as described above."}},
  "data": [
    {"substance": "colloidal bismuth subcitrate [CBS]", "values": [
      {"measurement": "decrease in MIC of MER in combination with CBS", "setting": "NDM-BL21; NDM-1 positive E. coli BL21(DE3)", "result": 8, "unit": "fold"},
      {"measurement": "MIC of MER in combination with CBS", "setting": "NDM-BL21; NDM-1 positive E. coli BL21(DE3), CBS concentration not stated", "result": 2, "unit": "µg/mL"},
      {"measurement": "MIC of MER in combination with CBS at 16 µg mL-1", "setting": "NDM-BL21; NDM-BL21", "result": 8, "unit": "µg/mL"},
      {"measurement": "MIC of MER in combination with CBS at 32 µg mL-1", "setting": "NDM-BL21; NDM-BL21", "result": 4, "unit": "µg/mL"},
      {"measurement": "MIC of MER in combination with CBS at 256 µg mL-1", "setting": "NDM-BL21; NDM-BL21", "result": 2, "unit": "µg/mL"},
      {"measurement": "decrease in MIC of MER in combination with CBS", "setting": "NDM-Rosetta; NDM-1 positive E. coli Rosetta(DE3)", "result": 8, "unit": "fold"},
      {"measurement": "MIC of MER in combination with CBS", "setting": "NDM-Rosetta; NDM-1 positive E. coli Rosetta(DE3), CBS concentration not stated", "result": 4, "unit": "µg/mL"},
      {"measurement": "MIC of MER in combination with CBS at 16 µg mL-1", "setting": "NDM-Rosetta; NDM-Rosetta", "result": 8, "unit": "µg/mL"},
      {"measurement": "MIC of MER in combination with CBS at 32 µg mL-1", "setting": "NDM-Rosetta; NDM-Rosetta", "result": 4, "unit": "µg/mL"},
      {"measurement": "MIC of MER in combination with CBS at 256 µg mL-1", "setting": "NDM-Rosetta; NDM-Rosetta", "result": 4, "unit": "µg/mL"},
      {"measurement": "observed mutation frequency", "setting": "NDM-HK [1]; MER with increasing CBS concentration", "result": "1.31 × 10^−7 to 9.84 × 10^−10"},
      {"measurement": "MER MPC with CBS", "setting": "NDM-HK [1]; ≥128 µg mL^−1 CBS", "result": 2, "unit": "fold MIC"},
      {"measurement": "mice survived, MER and CBS co-administrated", "setting": "NDM-HK [2]", "result": 40, "unit": "%"},
      {"measurement": "intoxication at recommended dosage", "setting": "[3]", "result": "No intoxication has been documented"},
      {"measurement": "NDM-1 melting temperature, treated group", "setting": "NDM-1", "result": 48, "unit": "°C"}
    ]}
  ]
}
